{
  "source": "patent US20220280548A1",
  "about": "“COMBINATION THERAPY FOR SPINAL MUSCULAR ATROPHY” (Biogen MA Inc., priority 2019, published 2022)",
  "tested_on": "neonatal (P0-P1) SMA mice having a human SMN2 transgene",
  "assay": "Body weight and righting reflex in neonatal SMA mice given nusinersen and/or AAV-SMN1 (Example 9)",
  "format": "in vivo",
  "conditions": "monotherapy, single dose",
  "protocol": "Nusinersen and AAV-SMN1 were administered to neonatal (P0-P1) SMA mice having a human SMN2 transgene. A low or high dose of nusinersen (1 μg and 3 μg respectively) was administered to the mice along with a low or high dose of AAV-SMN1 (1×10^10 GC or 3×10^10 GC respectively) at birth (P0-P1). The mice body weight and righting reflex were measured and compared to the body weight and righting reflex of control mice of the same genotype having received either nusinersen or AAV-SMN1 alone.\n[…]",
  "note": "“Also recorded” adds a separate entry of the source.",
  "data": [
    {"substance": "nusinersen (antisense UCACUUUCAUAAUGCUGG; 2'-O-MOE, phosphorothioate, chemistry not fully specified) [uniformly modified 2′-O-(2-methoxyethyl) phosphorothioate antisense oligonucleotide consisting of 18 nucleotide residues, targets intron 7 of SMN2 pre-mRNA]", "values": [
      {"measurement": "rescue of motor function (righting reflex)", "setting": "PND 16", "result": "full rescue"},
      {"measurement": "rescue of motor function (righting reflex)", "setting": "postnatal day (PND) 8", "result": "partially rescues; also recorded: partial rescue"},
      {"measurement": "body weight", "setting": "relative to WT control", "result": "lags behind the WT control"}
    ]}
  ]
}
